From article PMC4849045, “Hepatoprotective Limonoids from Andiroba (Carapa guianensis)” (International Journal of Molecular Sciences, 2016)
Like-named read-outs stand apart in the source and are kept apart here.

Experiments:
[1] = test system: LPS-activated NO production in mouse peritoneal macrophages; test: LPS-induced NO production in mouse peritoneal macrophages; type: cell-based; settings: Peritoneal macrophage; for IC50: read-out: IC50, inhibition of LPS-activated NO production; for inhibition at 3 µM / inhibition at 10 µM / inhibition at 30 µM / inhibition at 100 µM: read-out: Inhibition (%) of LPS-activated NO production
Experimental: The effects of limonoids (1–17) on NO production were examined to provide an estimation of macrophage activation levels in LPS-treated mouse peritoneal macrophages.
Assay for NO production in TGC-induced mouse peritoneal macrophages was performed as described previously. N^G-Monomethyl-L-arginine (L-NMMA) and caffeic acid phenethyl ester (CAPE) were used as reference compounds [33, 36].

[2] = Cell viability of LPS-treated mouse peritoneal macrophages (MTT assay); type: cell-based; settings: mean ± S.E.M. (n = 4), read-out: cell viability (%) in MTT assay (values in parentheses) (converted); for viability at 100 µM: # = cytotoxic effects were observed
L929 cells = test: TNF-α-induced cytotoxicity in L929 cells (MTT assay); type: cell-based; settings: Mus musculus; for inhibition at 3 µM / inhibition at 10 µM / inhibition at 30 µM: read-out: Inhibition (%) of TNF-α-induced cytotoxicity
Experimental: The effects of the limonoids (1–17) on the sensitivity of hepatocytes to TNF-α were assessed by measuring TNF-α-induced decreases in the viability of L929 cells, a TNF-α-sensitive cell line, by using the MTT assay. In the absence of a test sample, the cells incubated with 1 ng/mL TNF-α for 44 h were compared with those not incubated with TNF-α.
Assay for the TNF-α-induced cytotoxicity in L929 cells was performed as described previously. Silybin was used as a reference compound [36].

[3] = test system: primary cultured mouse hepatocytes; test: D-GalN-induced cytotoxicity in primary cultured mouse hepatocytes (MTT assay); settings: Hepatocyte, read-out: Inhibition (%) of D-GalN-induced cytotoxicity
Experimental: Assay for the D-GalN-induced cytotoxicity in primary cultured mouse hepatocytes was performed as described previously [33, 35, 36].

[4] = L929, 3 µM, 1 ng/mL TNF-α, 44 h, mean ± S.E.M. (n = 4)
[5] = L929, 10 µM, 1 ng/mL TNF-α, 44 h, mean ± S.E.M. (n = 4)
[6] = L929, 30 µM, 1 ng/mL TNF-α, 44 h, mean ± S.E.M. (n = 4)
[7] = LPS-treated TGC-induced mouse peritoneal macrophages
[8] = Mus musculus, 3 µM, mean ± S.E.M. (n = 4)
[9] = Mus musculus, 10 µM, mean ± S.E.M. (n = 4)
[10] = Mus musculus, 30 µM, mean ± S.E.M. (n = 4)
[11] = Mus musculus, 100 µM, mean ± S.E.M. (n = 4)

Structure (SMILES)	IC50 ([1]; Mus musculus) [µM]	inhibition at 3 µM ([1]; Mus musculus) [%]	inhibition at 10 µM ([1]; Mus musculus) [%]	inhibition at 30 µM ([1]; Mus musculus) [%]	inhibition at 100 µM ([1]; Mus musculus) [%]	viability at 3 µM [2] [%]	viability at 10 µM [2] [%]	viability at 30 µM [2] [%]	viability at 100 µM [2] [%]	inhibition at 3 µM (L929 cells; [4]) [%]	inhibition at 10 µM (L929 cells; [5]) [%]	inhibition at 30 µM (L929 cells; [6]) [%]	inhibition at 3 µM [3] [%]	inhibition at 10 µM [3] [%]	inhibition at 30 µM [3] [%]	inhibition at 100 µM [3] [%]	viability at 3 µM [2, 7] [%]	viability at 10 µM [2, 7] [%]	viability at 30 µM [2, 7] [%]	viability at 100 µM [2, 7] [%]	other results
CCC(=O)OC1C2(O)C(OC(C)=O)C3(C)CC24OC2(C)OC15C1CC(=O)OC(c6ccoc6)C1(C)C(OC(C)=O)C(O)C5(O2)C4(C)C3CC(=O)OC (stereo not drawn) [compound 13, Carapanolide M]	41.6	-1.1 ± 2.7	3.2 ± 2.8	30.3 ± 3.1	85.1 ± 1.5	99.2	95.1	94.2	112	-1.5 ± 7.1	7 ± 4.4	-5.1 ± 6.2	-7 ± 0.5	-7.3 ± 0.7	1 ± 0.4	-9.9 ± 1	–	–	–	–	–
CCC(=O)OC1C2(O)C(OC(C)=O)C3(C)CC24OC2(C)OC15C1CC(=O)OC(c6ccoc6)C1(C)C(OC(C)=O)CC5(O2)C4(C)C3C(OC(C)=O)C(=O)OC (stereo not drawn) [compound 14, Carapanolide Q]	38	1.9 ± 0.7	14.4 ± 2.2	44.3 ± 1.1	75.3 ± 3.5	–	–	–	–	8.6 ± 4.4	1.3 ± 4.2	9.2 ± 2.5	2.7 ± 1.9	-3.5 ± 2.9	-2.5 ± 2.1	-6.2 ± 1.7	99.8	96.3	95.5	116	–
COC(=O)C(OC(C)=O)C1C2(C)CC34OC5(C)OC6(C7CC(=O)OC(c8ccoc8)C7(C)C(OC(C)=O)C(O)C6(O5)C13C)C(OC(=O)C(C)C)C4(O)C2OC(C)=O (stereo not drawn) [compound 15, Carapanolide O]	–	–	–	–	–	104	108	107	109	–	–	–	7.5 ± 3.9	-5.3 ± 5.6	-5.2 ± 3.9	-2.1 ± 1.7	–	–	–	–	inhibition at 3 µM [1, 8]: -2.5 ± 5.4%; inhibition at 10 µM [1, 9]: 14.7 ± 8.2%; inhibition at 30 µM [1, 10]: 6.9 ± 5%; inhibition at 100 µM [1, 11]: 102 ± 3.2%; IC50 ([1]; mouse peritoneal macrophages): 46 µM; inhibition at 3 µM (L929 cells; L929, 44 h): 6.3 ± 4.3%; inhibition at 10 µM (L929 cells; L929, 44 h): 1 ± 6.4%; inhibition at 30 µM (L929 cells; L929, 44 h): 1.5 ± 4.1%
CCC(=O)OC1C2(OC(C)=O)C(OC(C)=O)C3(C)CC24OC2(C)OC15C(CC(=O)OC)C1(C)CC(c6occc6C1=O)C5(O2)C41COC(=O)CC31 (stereo not drawn) [compound 16, guianolide A]	77.9	1.9 ± 3.2	3.2 ± 1.4	12.7 ± 1.6	71.3 ± 3.2	–	–	–	–	-6.2 ± 5.2	-4.5 ± 1.9	-7.3 ± 3	9.2 ± 4.2	11 ± 5.3	9.8 ± 2.8	23.5 ± 3.5	96.9	102	98.7	106	–
COC(=O)CC1C(C)C(=O)C2(CC3(O)C4CC(=O)OC(c5ccoc5)C4(C)CCC3(O)O2)C(OC(=O)C(C)C)C1(C)C (stereo not drawn) [compound 17, carapanolide A]	–	–	–	–	–	–	–	–	–	8.8 ± 6.5	21.5 ± 5.5	58.2 ± 4.7	-6.8 ± 1.2	-8.3 ± 0.7	-4.5 ± 0.6	-7 ± 0.6	103	104	110	91.3	inhibition at 3 µM [1, 8]: -0.6 ± 2.1%; inhibition at 10 µM [1, 9]: 1.2 ± 2%; inhibition at 30 µM [1, 10]: 41.1 ± 1%; inhibition at 100 µM [1, 11]: 4.9 ± 1.8%; IC50 ([1]; mouse peritoneal macrophages): > 100 µM; IC50 (L929 cells; L929 cells, 1 ng/mL TNF-α, 44 h, read-out: IC50, inhibition of TNF-α-induced decrease in cell viability): 25.3 µM
